Experimental data from the supplement of paper PMC10307832.

Key:
Assay in all cases: relative viability (nuclei count vs DMSO), 5 days (fraction); higher = more cells survive
YM155 + Lapatinib = compound: COCC[n+]1c2c(n(Cc3cnccn3)c1C)C(=O)c1ccccc1C2=O [YM155] + CS(=O)(=O)CCNCc1ccc(-c2ccc3ncnc(Nc4ccc(OCc5cccc(F)c5)c(Cl)c4)c3c2)o1 [Lapatinib] (partner 2 µM)
Method in brief: (§1)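 A single step with final 0.05% Triton X-100, 1% formaldehyde and 1 ug/ml Hoechst fixed the cells and stained nuclei 5 days after treatment. Lung cancer cell lines in 1536-well plates had been treated by pin tool the day after seeding with one drug alone or a fixed anchor-drug dose plus five library-drug doses (not always all listed) in √10 steps, and nuclei were counted on 4× images. Relative viability is the ratio of nuclei in treated wells to nuclei in vehicle wells, taken as the median of duplicate plates.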

YM155 + Vorinostat = compound: COCC[n+]1c2c(n(Cc3cnccn3)c1C)C(=O)c1ccccc1C2=O [YM155] + O=C(CCCCCCC(=O)Nc1ccccc1)NO [Vorinostat] (partner 1 µM)
Method in brief: as §1

Quizartinib + Vorinostat = compound: CC(C)(C)c1cc(NC(=O)Nc2ccc(-c3cn4c(n3)sc3cc(OCCN5CCOCC5)ccc34)cc2)no1 [Quizartinib] + O=C(CCCCCCC(=O)Nc1ccccc1)NO [Vorinostat] (partner 1 µM)
Method in brief: as §1

Quizartinib + Phenformin = compound: CC(C)(C)c1cc(NC(=O)Nc2ccc(-c3cn4c(n3)sc3cc(OCCN5CCOCC5)ccc34)cc2)no1 [Quizartinib] + N=C(N)NC(=N)NCCc1ccccc1 [Phenformin] (partner 250 µM)
Method in brief: as §1

Work on NCI-H650 yielded a relative viability (YM155 + Lapatinib; first compound 0.002 µM) of 0.84, a relative viability (YM155 + Lapatinib; first compound 0.006325 µM) of 0.929 and a relative viability (YM155 + Lapatinib; first compound 0.02 µM) of 0.785. The relative viability (YM155 + Lapatinib; first compound 0.06325 µM) was 0.707, the relative viability (YM155 + Vorinostat; first compound 0.002 µM) was 0.364 and the relative viability (YM155 + Vorinostat; first compound 0.006325 µM) was 0.491. It also gave a relative viability (YM155 + Vorinostat; first compound 0.02 µM) of 0.5, a relative viability (YM155 + Vorinostat; first compound 0.06325 µM) of 0.312 and a relative viability (Quizartinib + Vorinostat; first compound 0.001 µM) of 0.464. It also gave a relative viability (Quizartinib + Vorinostat; first compound 0.003162 µM) of 0.445, a relative viability (Quizartinib + Vorinostat; first compound 0.01 µM) of 0.416 and a relative viability (Quizartinib + Vorinostat; first compound 0.03162 µM) of 0.456. For the same cell line, the relative viability (Quizartinib + Vorinostat; first compound 0.1 µM) was 0.54, the relative viability (Quizartinib + Phenformin; first compound 0.001 µM) was 0.433 and the relative viability (Quizartinib + Phenformin; first compound 0.003162 µM) was 0.454. The relative viability (Quizartinib + Phenformin; first compound 0.01 µM) was 0.409, the relative viability (Quizartinib + Phenformin; first compound 0.03162 µM) was 0.399 and the relative viability (Quizartinib + Phenformin; first compound 0.1 µM) was 0.476.
NCI-H661 showed a relative viability (YM155 + Lapatinib; first compound 0.002 µM) of 0.522, a relative viability (YM155 + Lapatinib; first compound 0.006325 µM) of 0.575 and a relative viability (YM155 + Lapatinib; first compound 0.02 µM) of 0.575. The relative viability (YM155 + Lapatinib; first compound 0.06325 µM) was 0.421, the relative viability (YM155 + Vorinostat; first compound 0.002 µM) was 0.765 and the relative viability (YM155 + Vorinostat; first compound 0.006325 µM) was 0.784. The relative viability (YM155 + Vorinostat; first compound 0.02 µM) was 0.883, the relative viability (YM155 + Vorinostat; first compound 0.06325 µM) was 0.364 and the relative viability (Quizartinib + Vorinostat; first compound 0.001 µM) was 0.724. The relative viability (Quizartinib + Vorinostat; first compound 0.003162 µM) was 0.812, the relative viability (Quizartinib + Vorinostat; first compound 0.01 µM) was 0.87 and the relative viability (Quizartinib + Vorinostat; first compound 0.03162 µM) was 0.807. The relative viability (Quizartinib + Vorinostat; first compound 0.1 µM) was 0.888, the relative viability (Quizartinib + Phenformin; first compound 0.001 µM) was 0.274 and the relative viability (Quizartinib + Phenformin; first compound 0.003162 µM) was 0.289. The relative viability (Quizartinib + Phenformin; first compound 0.01 µM) was 0.3, the relative viability (Quizartinib + Phenformin; first compound 0.03162 µM) was 0.224 and the relative viability (Quizartinib + Phenformin; first compound 0.1 µM) was 0.194.
In the case of NCI-H727, the relative viability (YM155 + Lapatinib; first compound 0.002 µM) is reported as 0.614, the relative viability (YM155 + Lapatinib; first compound 0.006325 µM) is reported as 0.704 and the relative viability (YM155 + Lapatinib; first compound 0.02 µM) is reported as 1.01. For the same cell line, the relative viability (YM155 + Lapatinib; first compound 0.06325 µM) was 0.953, the relative viability (YM155 + Vorinostat; first compound 0.002 µM) was 1.32 and the relative viability (YM155 + Vorinostat; first compound 0.006325 µM) was 1.28. It also gave a relative viability (YM155 + Vorinostat; first compound 0.02 µM) of 1.27, a relative viability (YM155 + Vorinostat; first compound 0.06325 µM) of 1.29 and a relative viability (Quizartinib + Vorinostat; first compound 0.001 µM) of 1.16. For the same cell line, the relative viability (Quizartinib + Vorinostat; first compound 0.003162 µM) was 1.13, the relative viability (Quizartinib + Vorinostat; first compound 0.01 µM) was 1.18 and the relative viability (Quizartinib + Vorinostat; first compound 0.03162 µM) was 1.27. It also gave a relative viability (Quizartinib + Vorinostat; first compound 0.1 µM) of 1.42, a relative viability (Quizartinib + Phenformin; first compound 0.003162 µM) of 0.514 and a relative viability (Quizartinib + Phenformin; first compound 0.01 µM) of 0.584. The relative viability (Quizartinib + Phenformin; first compound 0.03162 µM) was 0.52 and the relative viability (Quizartinib + Phenformin; first compound 0.1 µM) was 0.469.
NCI-H838 was tested, and the relative viability (YM155 + Lapatinib; first compound 0.002 µM) was 0.92, the relative viability (YM155 + Lapatinib; first compound 0.006325 µM) was 1.01 and the relative viability (YM155 + Lapatinib; first compound 0.02 µM) was 1.03. It also gave a relative viability (YM155 + Lapatinib; first compound 0.06325 µM) of 0.353, a relative viability (YM155 + Vorinostat; first compound 0.002 µM) of 0.705 and a relative viability (YM155 + Vorinostat; first compound 0.006325 µM) of 0.759. It also gave a relative viability (YM155 + Vorinostat; first compound 0.02 µM) of 0.68, a relative viability (YM155 + Vorinostat; first compound 0.06325 µM) of 0.377 and a relative viability (Quizartinib + Vorinostat; first compound 0.001 µM) of 0.68. It also gave a relative viability (Quizartinib + Vorinostat; first compound 0.003162 µM) of 0.662, a relative viability (Quizartinib + Vorinostat; first compound 0.01 µM) of 0.794 and a relative viability (Quizartinib + Vorinostat; first compound 0.03162 µM) of 0.707. It also gave a relative viability (Quizartinib + Vorinostat; first compound 0.1 µM) of 0.683, a relative viability (Quizartinib + Phenformin; first compound 0.001 µM) of 0.442 and a relative viability (Quizartinib + Phenformin; first compound 0.003162 µM) of 0.692. It also gave a relative viability (Quizartinib + Phenformin; first compound 0.01 µM) of 0.498, a relative viability (Quizartinib + Phenformin; first compound 0.03162 µM) of 0.607 and a relative viability (Quizartinib + Phenformin; first compound 0.1 µM) of 0.329.
